Reference: patent publication US20230285497A1, “ATOPIC […] WITH KAPPA OPIOID RECEPTOR AGONIST AS ADJUNCT TO TOPICAL CORTICOSTEROID” (Cara Therapeutics, Inc., priority 2022, published 2023)

Experiments:
Solubility in water = assay type: physicochemical; details: acetate salt
[1] = system: subjects with atopic dermatitis; test: Phase 2 study, tolerability and Treatment Emergent Adverse Events; assay type: in vivo, human
Protocol: Oral Difelikefalin 0.25 mg, 0.5 mg, 1.0 mg, or placebo was administered twice daily (BID) in subjects with atopic dermatitis (baseline validated Investigator's Global Assessment scale for AD: vIGA-ADTM≥2 and body surface area [BSA]≤30%) and moderate-to-severe AD-related pruritus (mean baseline Itch Numerical Rating Scale [I-NRS, 0-10 scale] score ≥5.0). The primary and key secondary endpoints were the change from baseline in the weekly mean of the daily I-NRS score at Week 12, and the proportion of subjects achieving at least a 4-point improvement from baseline in I-NRS score at Week 12, respectively.
There were no deaths in the study. Abdominal pain was the most common TEAE leading to study drug discontinuation in the 1.0 mg dose group (6.5%), compared to placebo (1.6%), 0.25 mg (0%) and 0.5 mg (0%) dose groups.

Compound | solubility in water (Solubility in water) | abdominal pain TEAE leading to study drug discontinuation ([1]; 0.25 mg dose group) [%] | abdominal pain TEAE leading to study drug discontinuation ([1]; 0.5 mg dose group) [%] | abdominal pain TEAE leading to study drug discontinuation ([1]; 1.0 mg dose group) [%] | deaths in the study ([1]; in vivo) | severity of the majority of reported TEAEs ([1]; in vivo) | overall tolerability ([1]; oral, twice daily, 12-week Treatment Period) | most common Treatment Emergent Adverse Events (TEAEs) ([1]; ≥5% in any dose group)
CC(=O)O.CC(C)C[C@@H](NC(=O)[C@@H](Cc1ccccc1)NC(=O)[C@H](N)Cc1ccccc1)C(=O)N[C@H](CCCCN)C(=O)N1CCC(N)(C(=O)O)CC1 [Difelikefalin acetate, 4-amino-1-(D-phenylalanyl-D-phenylalanyl-D-leucyl-D-lysyl)piperidine-4-carboxylic acid, acetate salt] | soluble in water |  |  |  |  |  |  | 
CC(C)C[C@@H](NC(=O)[C@@H](Cc1ccccc1)NC(=O)[C@H](N)Cc1ccccc1)C(=O)N[C@H](CCCCN)C(=O)N1CCC(N)(C(=O)O)CC1 [Difelikefalin] |  | 0 | 0 | 6.5 | no deaths | mild or moderate | generally well-tolerated | abdominal pain, nausea, dry mouth, headache, dizziness and hypertension
